From US10278957B2, “Opioid agonist peptides and uses thereof” (Protagonist Therapeutics, Inc., priority 2017, dated 2019)
pEC50: −log10 of the molar value.

Key:
[1] = Plasma assay (stability in mouse plasma); format: in vitro ADME; conditions: 37° C.
Description: Peptides of interest (20 uM) were incubated with pre-warmed mouse plasma (BioreclamationIVT) at 37° C. Aliquots were taken at various time points up to 24 hours (e.g. 0, 0.25, 1, 3, 6 and 24 hr), and immediately quenched with 4 volumes of organic solvent (acetonitrile/methanol (1:1) and 0.1% formic acid, containing 1 μM internal standard). Quenched samples were stored at 4° C. until the end of the experiment and centrifuged at 17,000 g for 15 minutes. The supernatant was diluted 1:1 with deionized water and analyzed using LC-MS. Percentage remaining at each time point was calculated based on the peak area ratio (analyte over internal standard) relative to the initial level at time zero. Half-lives were calculated by fitting to a first-order exponential decay equation using Graph Pad Prism.

[2] = target: T1, μ-opioid receptor (MOR) (Homo sapiens, UniProt P35372); assay: MOR agonist cAMP assay (HitHunter cAMP, forskolin-stimulated); format: cell-based
T1 construct: host or cells: cAMP Hunter CHO-K1 OPRM1 Gαi cell line
T1 sequence (P35372 whole entry): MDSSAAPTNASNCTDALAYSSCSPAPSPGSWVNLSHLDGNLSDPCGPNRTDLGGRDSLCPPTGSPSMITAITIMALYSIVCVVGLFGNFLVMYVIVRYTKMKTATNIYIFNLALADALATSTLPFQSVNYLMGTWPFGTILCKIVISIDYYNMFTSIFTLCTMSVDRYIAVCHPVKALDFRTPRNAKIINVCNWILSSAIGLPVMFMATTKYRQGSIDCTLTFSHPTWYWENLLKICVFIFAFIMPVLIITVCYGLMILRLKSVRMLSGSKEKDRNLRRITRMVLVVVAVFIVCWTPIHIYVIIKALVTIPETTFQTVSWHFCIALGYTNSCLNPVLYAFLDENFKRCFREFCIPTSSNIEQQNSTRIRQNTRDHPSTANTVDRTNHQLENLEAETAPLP
How it was run: (§1)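 CHO-K1 Gαi cells expressing OPRM1 or OPRD1 were exposed 30 min at 37° C to 11-point threefold agonist dilutions, in duplicate, with 20 uM forskolin final. cAMP quantified by EFC chemiluminescent competitive immunoassay against cAMP standards. EC50 by four-parameter Hill nonlinear regression.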

[3] = target: T2, δ-opioid receptor (DOR) (Homo sapiens, UniProt P41143); assay: DOR agonist cAMP assay (HitHunter cAMP, forskolin-stimulated); format: cell-based
T2 construct: host or cells: cAMP Hunter CHO-K1 OPRD1 Gαi cell line
T2 sequence (P41143 whole entry): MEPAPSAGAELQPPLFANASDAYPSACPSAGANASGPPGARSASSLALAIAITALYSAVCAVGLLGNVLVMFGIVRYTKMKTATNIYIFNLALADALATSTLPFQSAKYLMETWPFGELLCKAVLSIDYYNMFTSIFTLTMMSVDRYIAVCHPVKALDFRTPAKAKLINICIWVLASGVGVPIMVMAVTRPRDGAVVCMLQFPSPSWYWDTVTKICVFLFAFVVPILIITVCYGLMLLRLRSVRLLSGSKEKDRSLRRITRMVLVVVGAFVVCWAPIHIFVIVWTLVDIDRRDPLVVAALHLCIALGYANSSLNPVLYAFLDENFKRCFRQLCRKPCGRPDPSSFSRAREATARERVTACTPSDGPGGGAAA
How it was run: as §1

[4] = SIF assay (stability in simulated intestinal fluid); format: in vitro ADME; conditions: simulated intestinal fluid (SIF) with pancreatin; simulated intestinal fluid, pH 6.8, pancreatin, 37° C., 20 μM
How it was run: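 Peptides at 20 μM final were incubated at 37 °C in pH 6.8 phosphate buffer with pancreatin, sampled from 0 min to 24 h and quenched with acidified acetonitrile. The parent remaining was measured by LC-MS/MS against an internal standard, normalized to time 0, and half-life was taken from a first-order decay fit.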

[5] = SGF assay (stability in simulated gastric fluid); format: in vitro ADME; conditions: pig, simulated gastric fluid (SGF) with porcine pepsin, pH 2, pepsin, 37° C.
Description: SGF was prepared by adding 20 mg NaCl, 32 mg porcine pepsin (MP Biochemicals, catalog 02102599), and 70 μl HCl to 10 ml water (final pH=2). Aliquots of SGF (0.5 ml each) were pre-warmed at 37° C. To start the reaction, 1 μl of opioid agonist peptide stock solution (10 mM in DMSO) was added to 0.5 ml SGF and thoroughly mixed such that the final peptide concentration was 20 μM. The reactions were incubated at 37° C. with gentle shaking.
At each timepoint (0, 15, 30, 60 min) 50 µl aliquots were removed and added to 200 ul of acetonitrile containing 0.1% formic acid to quench the reaction. Samples were stored at 4° C. until the end of the experiment and centrifuged at 10,000 rpm for 5 minutes. Aliquots of the supernatant were removed, diluted 1:1 into distilled water containing internal standard, and analyzed by LCMS/MS. The percent of the opioid agonist peptide remaining at each timepoint was calculated based on the peak area response ratio of the opioid agonist peptide to the internal standard. Time 0 was set to 100%, and all later timepoints were calculated relative to time 0. Half-lives were calculated by fitting to a first-order exponential decay equation using GraphPad.

Cc1cc(O)cc(C)c1C[C@H](N)C(=O)N[C@H](CC(=O)O)C(=O)NCC(=O)N[C@H](CC(=O)N(C)CC(N)=O)Cc1ccccc1 [compound 83]
half-life at 20 uM [1]: > 24 h
pEC50 [2]: > 9.00
pEC50 [3]: > 9.00
half-life at 20 μM [4]: > 24 h
half-life at 20 μM [5]: > 24 h
